In article PMC4826332 (Journal of medicinal chemistry, 2015):
Where two headings read alike, the source gives them in different places.

Columns and labels:
[1] = molecular target: aryl hydrocarbon receptor (AhR) (Homo sapiens, UniProt P35869); test: Yeast AhR-signaling assay; format: cell-based
[2] = molecular target: T1, P450 1A2 in HepG2 cells (Homo sapiens, UniProt P05177); test: MROD assay in HepG2 cells
T1 sequence (P05177 2-516): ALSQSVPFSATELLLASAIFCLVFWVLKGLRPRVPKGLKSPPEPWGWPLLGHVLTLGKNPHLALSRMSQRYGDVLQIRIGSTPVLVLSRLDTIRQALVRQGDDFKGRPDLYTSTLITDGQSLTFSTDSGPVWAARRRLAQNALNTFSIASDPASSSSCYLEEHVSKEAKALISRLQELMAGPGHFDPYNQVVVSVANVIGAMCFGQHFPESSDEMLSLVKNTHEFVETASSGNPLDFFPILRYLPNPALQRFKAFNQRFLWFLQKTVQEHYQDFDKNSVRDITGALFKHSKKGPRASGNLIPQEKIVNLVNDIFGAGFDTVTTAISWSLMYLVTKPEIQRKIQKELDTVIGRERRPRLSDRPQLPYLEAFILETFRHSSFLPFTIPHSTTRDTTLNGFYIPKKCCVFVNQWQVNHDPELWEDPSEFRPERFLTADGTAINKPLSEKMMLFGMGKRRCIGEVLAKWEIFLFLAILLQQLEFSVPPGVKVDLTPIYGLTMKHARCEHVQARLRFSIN

[3] = system: HepG2 cells; test: Alamar blue viability assay in HepG2 cells; format: cell-based, human
[4] = molecular target: T2, P450 1A2 (Homo sapiens, UniProt P05177); test: Time-dependent inhibition of P450 1A2; details: for KI (time-dependent inhibition of P450 1A2): Kitz-Wilson plot
T2 sequence (P05177 1-516): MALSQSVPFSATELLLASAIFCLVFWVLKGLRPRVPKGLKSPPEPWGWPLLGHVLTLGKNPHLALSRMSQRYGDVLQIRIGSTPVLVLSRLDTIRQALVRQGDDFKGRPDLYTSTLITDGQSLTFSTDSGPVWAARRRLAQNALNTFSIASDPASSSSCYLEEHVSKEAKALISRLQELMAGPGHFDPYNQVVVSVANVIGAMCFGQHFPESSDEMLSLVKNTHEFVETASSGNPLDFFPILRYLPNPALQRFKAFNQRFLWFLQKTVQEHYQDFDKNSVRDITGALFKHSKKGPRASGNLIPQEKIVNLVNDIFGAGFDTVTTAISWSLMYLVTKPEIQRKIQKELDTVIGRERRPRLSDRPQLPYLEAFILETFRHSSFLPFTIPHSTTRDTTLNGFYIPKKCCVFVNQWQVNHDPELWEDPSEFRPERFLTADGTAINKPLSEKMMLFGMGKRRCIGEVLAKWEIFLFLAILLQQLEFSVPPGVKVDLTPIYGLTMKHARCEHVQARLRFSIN

[5] = molecular target: T3, CYP1A2 (Homo sapiens, UniProt P05177); test: NADPH-dependency assay, P450 1A2; details: human, pH 7.6, probe methoxyresorufin (MROD), 5 µM
T3 sequence (P05177 1-516): T2 sequence (P05177 1-516)

[6] = molecular target: T4, P450 1B1 (Homo sapiens, UniProt Q16678); test: NADPH-dependency assay, P450 1B1; details: 10 nM (0.01 μM) inhibitor, with or without 5 min NADPH preincubation
T4 sequence (Q16678 1-543): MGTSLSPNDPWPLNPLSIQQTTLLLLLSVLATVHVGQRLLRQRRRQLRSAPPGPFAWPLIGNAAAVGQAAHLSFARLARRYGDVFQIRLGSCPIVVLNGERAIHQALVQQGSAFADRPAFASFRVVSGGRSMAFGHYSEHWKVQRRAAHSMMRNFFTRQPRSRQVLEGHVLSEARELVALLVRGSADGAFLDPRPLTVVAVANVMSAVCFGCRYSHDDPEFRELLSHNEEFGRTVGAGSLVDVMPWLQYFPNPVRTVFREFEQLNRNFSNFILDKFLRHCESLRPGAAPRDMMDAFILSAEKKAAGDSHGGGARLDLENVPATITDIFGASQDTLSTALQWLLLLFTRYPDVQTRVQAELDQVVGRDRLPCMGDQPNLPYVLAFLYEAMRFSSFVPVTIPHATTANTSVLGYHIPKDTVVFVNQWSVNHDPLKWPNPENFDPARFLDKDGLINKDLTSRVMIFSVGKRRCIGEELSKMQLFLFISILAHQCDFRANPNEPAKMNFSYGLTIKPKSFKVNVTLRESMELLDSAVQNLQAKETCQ

[7] = molecular target: T5, P450 1A1 (Homo sapiens, UniProt P04798); test: NADPH-dependency assay, P450 1A1; details: 10 nM (0.01 μM) inhibitor, with or without 5 min NADPH preincubation
T5 sequence (P04798 1-512): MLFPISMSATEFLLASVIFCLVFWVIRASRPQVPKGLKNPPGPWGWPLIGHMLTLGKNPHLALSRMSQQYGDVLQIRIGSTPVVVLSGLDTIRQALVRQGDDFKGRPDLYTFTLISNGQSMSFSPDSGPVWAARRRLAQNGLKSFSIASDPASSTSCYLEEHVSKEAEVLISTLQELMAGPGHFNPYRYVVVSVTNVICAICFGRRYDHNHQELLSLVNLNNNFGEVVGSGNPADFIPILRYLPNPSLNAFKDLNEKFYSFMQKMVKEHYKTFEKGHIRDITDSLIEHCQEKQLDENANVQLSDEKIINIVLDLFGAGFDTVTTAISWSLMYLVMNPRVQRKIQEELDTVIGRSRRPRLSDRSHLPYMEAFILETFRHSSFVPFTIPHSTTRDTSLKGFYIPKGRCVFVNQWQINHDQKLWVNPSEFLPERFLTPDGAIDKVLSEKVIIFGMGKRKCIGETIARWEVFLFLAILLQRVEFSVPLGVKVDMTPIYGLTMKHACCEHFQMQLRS

[8] = molecular target: T2, P450 1A2; test: NADPH-dependency assay, P450 1A2; details: 10 nM inhibitor, without NADPH preincubation

Sequence of aryl hydrocarbon receptor (AhR) (P35869 11-848): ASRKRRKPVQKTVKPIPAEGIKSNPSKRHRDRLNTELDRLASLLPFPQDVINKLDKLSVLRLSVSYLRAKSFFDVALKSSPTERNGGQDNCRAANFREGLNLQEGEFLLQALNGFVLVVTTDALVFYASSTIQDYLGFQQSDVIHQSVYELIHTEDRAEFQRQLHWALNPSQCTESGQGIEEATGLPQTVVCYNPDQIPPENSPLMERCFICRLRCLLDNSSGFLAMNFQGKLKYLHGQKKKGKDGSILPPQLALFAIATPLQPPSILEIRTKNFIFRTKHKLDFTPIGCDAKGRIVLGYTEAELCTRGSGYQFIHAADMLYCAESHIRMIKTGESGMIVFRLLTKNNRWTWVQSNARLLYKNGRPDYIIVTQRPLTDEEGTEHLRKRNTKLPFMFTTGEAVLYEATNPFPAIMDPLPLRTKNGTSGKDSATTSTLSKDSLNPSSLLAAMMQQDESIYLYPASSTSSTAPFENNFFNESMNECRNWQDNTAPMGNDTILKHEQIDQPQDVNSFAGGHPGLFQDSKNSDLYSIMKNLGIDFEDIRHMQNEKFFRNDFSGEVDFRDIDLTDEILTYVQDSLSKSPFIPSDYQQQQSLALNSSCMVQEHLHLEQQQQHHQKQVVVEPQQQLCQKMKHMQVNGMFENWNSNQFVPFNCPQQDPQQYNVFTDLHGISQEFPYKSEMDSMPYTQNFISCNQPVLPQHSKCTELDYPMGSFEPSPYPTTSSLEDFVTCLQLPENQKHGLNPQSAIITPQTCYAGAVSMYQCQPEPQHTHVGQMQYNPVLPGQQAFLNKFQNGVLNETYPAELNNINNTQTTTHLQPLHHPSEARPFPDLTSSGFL
Sequence of aryl hydrocarbon receptor (AhR) (P27540 whole entry partner): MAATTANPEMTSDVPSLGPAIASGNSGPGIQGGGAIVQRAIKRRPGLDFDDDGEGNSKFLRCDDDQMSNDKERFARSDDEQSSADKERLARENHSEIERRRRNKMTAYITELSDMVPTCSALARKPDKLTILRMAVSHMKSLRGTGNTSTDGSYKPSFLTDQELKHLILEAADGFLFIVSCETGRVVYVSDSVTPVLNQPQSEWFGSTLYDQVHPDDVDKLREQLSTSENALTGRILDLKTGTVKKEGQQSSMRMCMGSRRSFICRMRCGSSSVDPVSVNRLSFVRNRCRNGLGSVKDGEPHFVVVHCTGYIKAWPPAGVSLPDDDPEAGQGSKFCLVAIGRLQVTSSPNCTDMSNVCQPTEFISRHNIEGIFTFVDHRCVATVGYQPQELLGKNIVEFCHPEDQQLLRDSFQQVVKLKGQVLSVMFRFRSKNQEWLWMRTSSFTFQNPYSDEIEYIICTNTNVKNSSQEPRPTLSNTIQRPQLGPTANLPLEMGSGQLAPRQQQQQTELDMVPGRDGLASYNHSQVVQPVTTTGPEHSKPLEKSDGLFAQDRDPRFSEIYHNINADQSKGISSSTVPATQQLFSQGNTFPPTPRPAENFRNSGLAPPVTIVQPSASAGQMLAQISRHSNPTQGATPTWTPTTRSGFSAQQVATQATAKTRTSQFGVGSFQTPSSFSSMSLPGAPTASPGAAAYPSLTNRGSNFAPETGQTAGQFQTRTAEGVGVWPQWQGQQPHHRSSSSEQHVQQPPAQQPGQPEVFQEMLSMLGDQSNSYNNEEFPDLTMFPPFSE

## O=c1cc(C(F)(F)F)c2ccc3c(c2o1)C=CCO3 [Compound 20, 4-(Trifluoromethyl)pyrano[2,3-f]chromen-2(8H)-one]
[1]; 10^−4 to 10^−10 M compound combined with 10^−8 M βNF
  influence on βNF-induced AhR activation: do not influence
[1]; yeast AhR activation assays
  concentration at which AhR is not activated: lower than 1 μM
[1]; yeast strain MYA-3637
  concentrations at which AhR-signaling pathway is not activated: lower than 10^−6 M
[2]; 24 h incubation, read at 10, 30, 60 min
  concentrations decreasing MROD activity in HepG2 cells: higher than 10^−6 M
[2]; in-cell P450 1A2 inhibition assays
  concentrations decreasing MROD activity in HepG2 cells: higher than 1 μM
[3]
  concentration not toxic to HepG2 cells: ≤ 10^−5 M
[4]
  mode of inhibition of P450 1A2 (time dependence): competitive inhibitor

## O=c1cc(-c2ccccc2)oc2ccc3ccccc3c12 [βNF, β-naphthoflavone, reference compound]
[1]; 10^−8 M, positive control, compared with blank control (1% DMSO)
  activation of AhR-signaling pathway (Abs405/Abs600): great activation
[2]; 10^−5 M, 24 h incubation, read at 10, 30, 60 min
  effect on MROD activity in HepG2 cells: increased

## Cc1cc2c(cc(O)c3c(=O)cc(-c4ccccc4)oc32)o1 [Compound 8, 5-Hydroxy-8-methyl-2-phenyl-4H-furo[2,3-h]chromen-4-one]
[5]
  inhibition at 6 min, 0.01 µM: 90%
[6]
  effect on P450 1B1 activity: does not influence
[4]
  mode of inhibition of P450 1A2 (time dependence): time- and NADPH-dependent inhibition
  KI (time-dependent inhibition of P450 1A2): 120 nM
[7]
  effect on P450 1A1 activity: does not influence

## Cc1cc2c(ccc3c(=O)cc(-c4ccccc4)oc32)o1 [Compound 3, 8-Methyl-2-phenyl-4H-furo[2,3-h]chromen-4-one]
[1]; yeast strain MYA-3637
  concentrations showing considerable activation of AhR: higher than 10^−7 M
[5]
  inhibition at 6 min, 0.01 µM: 90%
[8]
  effect on P450 1A2 activity without NADPH preincubation: significant inhibition
[6]
  effect on P450 1B1 activity: does not influence
[4]
  mode of inhibition of P450 1A2 (time dependence): time-dependent inhibitor
  KI (time-dependent inhibition of P450 1A2): 440 nM
[4]; listed as 7,8-furanoflavone
  mode of inhibition of P450 1A2 (time dependence): time-dependently inhibits
[4]; listed as 78FF
  mode of inhibition of P450 1A2 (time dependence): time- and NADPH-dependent inhibition
[7]
  effect on P450 1A1 activity: does not influence
